Measurements published in ChEMBL document CHEMBL1129522, “Inhibitors of acyl-CoA:cholesterol O-acyltransferase. 17. Structure-activity relationships of several series of compounds derived from N-chlorosulfonyl isocyanate” (J Med Chem, 1996).
Where “and” joins values, the source holds several entries; their conditions need not be identical. Identical values can stand only once.

Legend:
[1] = target: T1, Sterol O-acyltransferase 1 (Rattus norvegicus, UniProt O70536); assay: In vitro inhibitory activity against acyl coenzyme A:cholesterol acyltransferase 1 in microsomes of rat liver
T1 sequence (O70536 whole entry): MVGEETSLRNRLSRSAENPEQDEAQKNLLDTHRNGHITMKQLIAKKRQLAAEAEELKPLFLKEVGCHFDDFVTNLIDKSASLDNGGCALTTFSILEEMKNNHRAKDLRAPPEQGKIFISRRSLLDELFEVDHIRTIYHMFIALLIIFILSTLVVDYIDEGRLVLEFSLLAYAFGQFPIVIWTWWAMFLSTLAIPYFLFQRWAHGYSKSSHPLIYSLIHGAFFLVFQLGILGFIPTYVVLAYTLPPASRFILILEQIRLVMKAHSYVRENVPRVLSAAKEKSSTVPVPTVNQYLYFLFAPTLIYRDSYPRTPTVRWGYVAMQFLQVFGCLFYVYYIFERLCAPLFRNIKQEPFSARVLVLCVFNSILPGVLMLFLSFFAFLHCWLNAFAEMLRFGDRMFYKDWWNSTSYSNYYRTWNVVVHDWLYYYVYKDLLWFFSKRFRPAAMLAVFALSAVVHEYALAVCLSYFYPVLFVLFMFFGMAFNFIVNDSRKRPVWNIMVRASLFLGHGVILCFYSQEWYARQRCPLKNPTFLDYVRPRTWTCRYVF

[2] = system: Rattus norvegicus; assay: Acute in vivo activity measured by total plasma cholesterol concentration levels (TC) at 30 mg/kg dose; format: functional
[3] = target: T2, Sterol O-acyltransferase 1 (Rattus norvegicus) (UniProt O70536); assay: Acute in vivo activity was measured by the total plasma cholesterol concentration levels(TC) at dose 3 mg/kg; format: functional, organism-based; parameters: dose 3 mg/kg
T2 sequence (whole entry): T1 sequence (O70536 whole entry)

Cc1cccc(C(C)(C)C)c1OC(=O)NS(=O)(=O)Oc1c(C(C)C)cccc1C(C)C
IC50 [1]: 49 µM
Delta TC [2]: -15%

CC(C)c1cccc(C(C)C)c1NS(=O)(=O)NC(=O)N(Cc1ccccc1)Cc1ccccc1
IC50 [1]: 16 µM

CC(C)c1cccc(C(C)C)c1OS(=O)(=O)NC(=O)OC1C2CC3CC(C2)CC1C3 (centres undefined)
IC50 [1]: 23 µM
Delta TC [2]: -36%

CCCCCCCCCCCCOS(=O)(=O)[N-]C(=O)Nc1c(C(C)C)cccc1C(C)C.[Na+]
IC50 [1]: 5 µM
Delta TC [2]: -60%

COc1cccc(OC)c1OC(=O)NS(=O)(=O)Oc1c(C(C)C)cccc1C(C)C [listing 1 of 2 here]
IC50 [1]: > 50 µM
Delta TC [2]: -61%

CCCCCCNS(=O)(=O)NC(=O)Oc1c(C(C)C)cccc1C(C)C
IC50 [1]: 21 µM
Delta TC [3]: -12%

CC(C)c1cc(Br)cc(C(C)C)c1OC(=O)NS(=O)(=O)Oc1c(C(C)C)cccc1C(C)C
IC50 [1]: 31 µM
Delta TC [2]: -29%

COc1cc(C(C)(C)C)c(OC(=O)NS(=O)(=O)Oc2c(C(C)C)cccc2C(C)C)c(C(C)(C)C)c1
IC50 [1]: 4.8 µM
Delta TC [2]: -72%

CC(C)c1cccc(C(C)C)c1OC(=O)NS(=O)(=O)N1CCCCC1
IC50 [1]: > 100 µM

CC(C)(C)c1cccc(C(C)(C)C)c1OC(=O)NS(=O)(=O)Oc1c(C(C)(C)C)cccc1C(C)(C)C
IC50 [1]: 30 µM
Delta TC [2]: -18%

COc1cccc(OC)c1OC(=O)[N-]S(=O)(=O)Oc1c(C(C)C)cccc1C(C)C.[Na+]
IC50 [1]: 48 µM
Delta TC [2]: -49%

CCOC(=O)NS(=O)(=O)Oc1c(C(C)C)cccc1C(C)C
IC50 [1]: > 50 µM
Delta TC [2]: -14%

CC(C)c1ccc(OC(=O)NS(=O)(=O)Oc2c(C(C)C)cccc2C(C)C)c(C(C)C)c1
IC50 [1]: > 50 µM
Delta TC [2]: 6%

CC(C)c1cccc(C(C)C)c1OC(=O)NS(=O)(=O)Oc1c(C(C)C)cc(O)cc1C(C)C
IC50 [1]: > 50 µM
Delta TC [2]: -15%

CC(C)c1cccc(C(C)C)c1OS(=O)(=O)NC(=O)Sc1c(C(C)C)cccc1C(C)C
IC50 [1]: 8.7 µM
Delta TC [2]: -17%

CC(C)c1cccc(C(C)C)c1OS(=O)(=O)NC(=O)OC1CCCCC1
IC50 [1]: 38 µM
Delta TC [2]: -38%

CCCCCN(CCCCC)S(=O)(=O)NC(=O)Oc1c(C(C)(C)C)cc(C)cc1C(C)(C)C
IC50 [1]: 2.2 µM

CC(C)c1cccc(C(C)C)c1OS(=O)(=O)NC(=O)Oc1ccc(Cl)cc1
IC50 [1]: 97 µM
Delta TC [2]: -8%

CCCCN(CCCC)S(=O)(=O)N(C)C(=O)Nc1c(C(C)C)cccc1C(C)C
IC50 [1]: > 5 µM

CCCCCCNS(=O)(=O)NC(=O)Oc1c(C(C)(C)C)cc(C)cc1C(C)(C)C
IC50 [1]: 19.4 µM
Delta TC [3]: -10%

CCCCCCOS(=O)(=O)NC(=O)Nc1c(C(C)C)cccc1C(C)C
IC50 [1]: 27 µM
Delta TC [3]: -8%

CC(=O)c1cc(C(C)C)c(OC(=O)NS(=O)(=O)Oc2c(C(C)C)cccc2C(C)C)c(C(C)C)c1
IC50 [1]: 41.8 µM
Delta TC [2]: -16%

COC(=O)NS(=O)(=O)Oc1c(C(C)C)cccc1C(C)C
IC50 [1]: > 100 µM

CCN(CC)S(=O)(=O)NC(=O)Nc1c(C(C)C)cccc1C(C)C
IC50 [1]: 2.5 µM

COc1cccc(OC)c1OC(=O)NS(=O)(=O)Oc1c(C(C)C)cccc1C(C)C [listing 2 of 2 here]
Delta TC [3]: -12% and -4%

CC(C)c1cccc(C(C)C)c1OS(=O)(=O)NC(=O)OC1[C@H](C(C)C)CCC[C@H]1C(C)C (relative stereo)
IC50 [1]: 5.7 µM
Delta TC [2]: -35%

CCCCN(CCCC)S(=O)(=O)NC(=O)Nc1c(C(C)C)cccc1C(C)C [listing 1 of 2 here]
IC50 [1]: 0.36 µM

CC(C)c1cccc(C(C)C)c1NS(=O)(=O)NC(=O)Oc1c(-c2ccccc2)cccc1-c1ccccc1
IC50 [1]: > 25 µM

CC(C)c1cccc(C(C)C)c1OC(=O)NS(=O)(=O)N1CCN(C)CC1
IC50 [1]: > 100 µM

CC(C)c1cccc(C(C)C)c1NC(=O)NS(=O)(=O)N1CCCC1
IC50 [1]: 15 µM

CC(C)c1cccc(C(C)C)c1NC(=O)NS(=O)(=O)N(CCCN(C)C)CCCN(C)C
IC50 [1]: 55 µM

CCCCCCCCCCCCOC(=O)NS(=O)(=O)Nc1c(C(C)C)cccc1C(C)C
IC50 [1]: 33 µM

CC(C)c1cccc(C(C)C)c1OC(=O)NS(=O)(=O)N1CCCC1
IC50 [1]: 53 µM
Delta TC [3]: -4%

CCCCCCCCCCC(C)OS(=O)(=O)NC(=O)Nc1c(C(C)C)cccc1C(C)C (centres undefined)
Delta TC [3]: -48%

CC(C)c1cccc(C(C)C)c1OC(=O)[N-]S(=O)(=O)Oc1c(C(C)C)cccc1C(C)C.[Na+]
Delta TC [2]: -74%

CCCCCCCCCCN(CCCCCCCCCC)S(=O)(=O)NC(=O)Nc1c(C(C)C)cccc1C(C)C
IC50 [1]: 0.72 µM
Delta TC [3]: -17%

CCCCCCCCCCCCCCCCCCN(C)S(=O)(=O)NC(=O)Nc1c(C(C)C)cccc1C(C)C
IC50 [1]: 1.9 µM
Delta TC [3]: -18%

CC(C)c1cccc(C(C)C)c1OC(=O)NS(=O)(=O)N1CCc2ccccc21
IC50 [1]: 43 µM
Delta TC [3]: -31%

CCCCN(CCCC)S(=O)(=O)NC(=O)Oc1c(C(C)C)cccc1C(C)C [listing 1 of 2 here]
IC50 [1]: 1.9 µM

CCCCN(CCCC)S(=O)(=O)NC(=O)Nc1c(C(C)C)cccc1C(C)C [listing 2 of 2 here]
IC50 [1]: 0.53 µM

CCCCN(C)S(=O)(=O)NC(=O)Nc1c(C(C)C)cccc1C(C)C
IC50 [1]: 2.3 µM
Delta TC [3]: -37%

CCCCCCNS(=O)(=O)NC(=O)Nc1c(C(C)C)cccc1C(C)C
IC50 [1]: 8.1 µM

CCCCN(CCCC)S(=O)(=O)NC(=O)Oc1c(C(C)(C)C)cc(C)cc1C(C)(C)C
IC50 [1]: 3.2 µM

C=CCN(CC=C)S(=O)(=O)NC(=O)Nc1c(C(C)C)cccc1C(C)C
IC50 [1]: 2.7 µM
Delta TC [3]: 2%

CCCCCCCCCCCCOS(=O)(=O)NC(=O)Nc1c(C(C)C)cccc1C(C)C
IC50 [1]: 6.8 µM

CC(C)c1cccc(C(C)C)c1NC(=O)NS(=O)(=O)N(C)C
IC50 [1]: 3.9 µM

CCCCCCCCCCN(CCCCCCCCCC)S(=O)(=O)NC(=O)Oc1c(C(C)(C)C)cc(C)cc1C(C)(C)C
IC50 [1]: 89 µM

CC(C)c1cccc(C(C)C)c1OC(=O)NS(=O)(=O)N(Cc1ccccc1)Cc1ccccc1
IC50 [1]: 20 µM
Delta TC [3]: -17%

CC(C)c1cccc(C(C)C)c1NS(=O)(=O)NC(=O)NC(c1ccccc1)c1ccccc1
IC50 [1]: 30 µM
Delta TC [3]: -5%

CCCCN(CCCC)S(=O)(=O)NC(=O)Oc1c(C(C)C)cccc1C(C)C [listing 2 of 2 here]
IC50 [1]: 1.9 µM

Cc1cc(C(C)(C)C)c(OC(=O)NS(=O)(=O)N(CC2CCCO2)CC2CCCO2)c(C(C)(C)C)c1 (centres undefined)
IC50 [1]: 21 µM

CCCCCCCCCCOS(=O)(=O)NC(=O)Nc1c(C(C)C)cccc1C(C)C
IC50 [1]: > 10 µM

Cc1cc(C(C)(C)C)c(OC(=O)NS(=O)(=O)N(C)CCc2ccccn2)c(C(C)(C)C)c1 [listing 1 of 2 here]
IC50 [1]: 31 µM

Cc1cc(C(C)(C)C)c(OC(=O)NS(=O)(=O)N(C(C)C)C(C)C)c(C(C)(C)C)c1
IC50 [1]: 3.2 µM

CC(C)NS(=O)(=O)NC(=O)Nc1c(C(C)C)cccc1C(C)C
IC50 [1]: 18 µM

CCCCCCCCN(C)S(=O)(=O)NC(=O)Oc1c(C(C)(C)C)cc(C)cc1C(C)(C)C
IC50 [1]: 18 µM
Delta TC [3]: 1%

C=CCN(CC)S(=O)(=O)NC(=O)Nc1c(C(C)C)cccc1C(C)C
IC50 [1]: 2.1 µM

COc1cc(C(C)(C)C)c(OC(=O)NS(=O)(=O)NCC(c2ccccc2)c2ccccc2)c(C(C)(C)C)c1
IC50 [1]: 82 µM
Delta TC [3]: -15%

CCCCCCN(CCCCCC)S(=O)(=O)NC(=O)Oc1c(C(C)(C)C)cc(C)cc1C(C)(C)C
IC50 [1]: 4.3 µM

CCCCN(CC)S(=O)(=O)NC(=O)Nc1c(C(C)C)cccc1C(C)C
IC50 [1]: 1.2 µM
Delta TC [3]: -29%

CCCCCCCCCCCCOC(=O)NS(=O)(=O)Nc1c(OC)cc(OC)cc1OC
IC50 [1]: 30 µM

COC(=O)NS(=O)(=O)Nc1c(C(C)C)cccc1C(C)C
IC50 [1]: > 100 µM

CN(C(=O)Oc1c(C(C)(C)C)cccc1C(C)(C)C)S(=O)(=O)NC(c1ccccc1)c1ccccc1
IC50 [1]: 4.6 µM

CC(C)c1cccc(C(C)C)c1NC(=O)NS(=O)(=O)N1CCC(c2ccccc2)CC1
IC50 [1]: 10.4 µM
Delta TC [3]: -17%

CCCCCCCCN(CCCCCCCC)S(=O)(=O)NC(=O)Oc1c(C(C)(C)C)cc(C)cc1C(C)(C)C
IC50 [1]: 2.7 µM

Cc1cc(C(C)(C)C)c(OC(=O)NS(=O)(=O)N(C)CCc2ccccn2)c(C(C)(C)C)c1 [listing 2 of 2 here]
IC50 [1]: 31 µM

CC(C)c1cccc(C(C)C)c1OC(=O)NS(=O)(=O)N1CCOCC1
IC50 [1]: > 100 µM

CC(C)c1cccc(C(C)C)c1NC(=O)NS(=O)(=O)N1CCCCC1
IC50 [1]: 17 µM
